We go through two molecules from patent EP0055716B1, “AMPLIFIED ANTIBIOTIC AND ANTITUMOR AGENTS” (priority 1980, dated 1982).

In test [1] the test system is Walker 256 carcinoma Sarcoma. The test is described as follows: Survival of rats with Walker 256 ascites tumour, amide with or without amplifier. The conditions noted are these: for T/C (1): control saline vehicle only. The format is in vivo, Sprague Dawley rats. As for the experimental part: This was given two 2-minute treatments with Boyle's fluid (9 vols. 0.83% NH4CI, 1 vol. Tris buffer, pH7.2). The cell suspension was counted on a haemocytometer using Turk's fluid and then diluted with Eagle's medium to 10^7 live cells per ml, and then 0.1 ml was injected intraperitoneally. Bacto-fluid Thiolglycollate Medium was used to test for contamination. Solutions of the phleomycins, bleomycins or tallysomycins were made up in phosphate-buffered saline at pH7.2 in daily doses at the commencement of each 5 day injection period and were kept frozen until the commencement of each day's injections. The injections were given at 9 a.m. and 4 p.m. […] Test groups usually comprised 7 or 8 animals.

A further test relates to Ehrlich's Ascites Tumor. Nature of the test: Survival of mice with Ehrlich's ascites tumor, amide with or without amplifier. The format is in vivo. As to conditions: for T/C (1): control saline vehicle only.
The next test concerns Mouse Sarcoma 180. The test is described as follows: Survival of mice with Sarcoma 180, amide with or without amplifier. The test is classed as in vivo. As to conditions: i.p.; for T/C (1): control saline vehicle only.
Where [2] appears, read: Exp 1A, amplifier alone 10.61 uKD.
Setting [3] is: Exp 1A, amplifier alone 106.1 uKD.
[4] abbreviates: Exp 1B, amplifier alone 10.61 uKD.
Setting [5] is: Exp 1B, amplifier alone 1061 uKD.
Where [6] appears, read: Exp 1D, amplifier alone 10.61 uKD in minipumps.
[7] abbreviates: Exp 1D, amplifier alone 106.1 uKD in minipumps.
[8] abbreviates: Exp 2A, i.p., amplifier alone 10.61 uKD.
The mark [9] stands for this setting: Exp 2A, i.p., amplifier alone 106.1 uKD.
Setting [10] is: Exp 2B, amplifier alone 10.61 uKD in drinking water.
Where [11] appears, read: Exp 2B, amplifier alone 106.1 uKD in drinking water.
[12] abbreviates: Exp 2B, amplifier alone 1061 uKD in drinking water.
The mark [13] stands for this setting: Exp 3A, amplifier alone 1942 uKD.
[14] abbreviates: Exp 1C, amplifier alone 675 uKD.
Where [15] appears, read: Exp 1E, amplifier alone 675 uKD.
[16] abbreviates: Exp 2C, i.p., amplifier alone 675 uKD.
[17] abbreviates: Exp 2C, i.p., amplifier alone 2025 uKD.
Where [18] appears, read: Exp 3B, amplifier alone 675 uKD.
Where [19] appears, read: Exp 3C, amplifier alone 675 uKD.

As to `Cn1c(=O)c2c(ncn2C)n(C)c1=O` [Caffeine, 1, 3, 7 trimethyl xanthene], the M.S.T. in test [1] (setting [2]) was 8.0 days; in test [1] (setting [3]), 8.0 days; in test [1] (setting [4]), 7.0 days; in test [1] (setting [5]) it was 8.0 days; in test [1] (setting [6]), 10.0 days; in test [1] (setting [7]), 10.0 days. Moreover, the M.S.T. with Ehrlich's Ascites Tumor (setting [8]) was 21.0 days; in the test on Ehrlich's Ascites Tumor (setting [9]) it was 21.0 days; with Ehrlich's Ascites Tumor (setting [10]), 22.0 days; in the test on Ehrlich's Ascites Tumor (setting [11]) it was 21.0 days; with Ehrlich's Ascites Tumor (setting [12]), 20.0 days; in the test on Mouse Sarcoma 180 (setting [13]) it was 17.0 days. In addition, the “T/C (1)” value in test [1] (setting [2]) amounted to 89; in test [1] (setting [3]), 89; in test [1] (setting [4]), 93; in test [1] (setting [5]), 107; in test [1] (setting [6]) it was 95; in test [1] (setting [7]) it was 95. Moreover, the “T/C (1)” value is on record as 93 in the test on Ehrlich's Ascites Tumor (setting [8]); 93 in the test with Ehrlich's Ascites Tumor (setting [9]); 119 with Ehrlich's Ascites Tumor (setting [10]); 113 in the test on Ehrlich's Ascites Tumor (setting [11]); 108 in the test with Ehrlich's Ascites Tumor (setting [12]); 106 in the test on Mouse Sarcoma 180 (setting [13]).
With Dimethylthiocyanine, the M.S.T. in test [1] (setting [14]) was 9.0 days; in test [1] (setting [15]) it was 6.0 days; with Ehrlich's Ascites Tumor (setting [16]), 20.0 days; in the test with Ehrlich's Ascites Tumor (setting [17]), 20.0 days; with Mouse Sarcoma 180 (setting [18]) it was 17.0 days; in the test on Mouse Sarcoma 180 (setting [19]), 17.0 days. Further, the “T/C (1)” value in test [1] (setting [14]) is reported as 112; in test [1] (setting [15]) it was 100; in the test with Ehrlich's Ascites Tumor (setting [16]), 111; with Ehrlich's Ascites Tumor (setting [17]) it was 111; in the test on Mouse Sarcoma 180 (setting [18]), 100; in the test with Mouse Sarcoma 180 (setting [19]) it was 100.
